US9278874B2, “Prevention of starch degradation in pulp, paper or board making processes using zinc ions and an oxidizing biocide” (KEMIRA OYJ, priority 2011, dated 2016)

Tests used:
Type in all cases: cell-based
[1] = system: starch degrading bacteria; assay: Prevention of starch degradation in head box stock using chlorine dioxide (ClO2) and zinc; remaining starch by iodine staining; conditions: for Prevention of starch degradation (in words): 10 mg/l zinc or 5-20 mg/l ClO2 alone; for Starch concentration 4 h: contact time 4 h; for Starch concentration 24 h: contact time 24 h
Description: (§1) Prevention of starch degradation was studied using an oxidizing biocide (chlorine dioxide, ClO2) and zinc. Head box stock from packaging board mill, stored at +4° C. after collecting, was amended with 0.8 g/l cooked starch and incubated overnight at 45° C. with 150 rpm shaking to induce the growth of starch degrading bacteria. The stock was divided into 30 ml portions and appropriate amounts of zinc (Zn^2+ from zinc chloride) and ClO2 were added together with a new starch addition (400 mg/l). After 4 h and 24 h incubation (+45° C., 150 rpm) the remaining starch was quantified using iodine staining (Lugol-solution) at 590 nm. An external standard curve was used to convert absorbance values into starch amounts.

[2] = system: starch degrading bacteria; assay: Prevention of starch degradation in head box stock using glutaraldehyde and zinc; remaining starch by iodine staining; conditions: for Prevention of starch degradation (in words): 10 mg/l zinc or 5-30 mg/l glutaraldehyde alone; for Starch concentration 4 h: contact time 4 h; for Starch concentration 24 h: contact time 24 h
Description: as §1, with “a non-oxidizing” for “an oxidizing”, “(glutaraldehyde)” for “(chlorine dioxide, ClO2)”, “glutaraldehyde” for “ClO2”

[3] = system: starch degrading bacteria; assay: Prevention of starch degradation in head box stock using monochloramine (MCA) and zinc; remaining starch by iodine staining; conditions: for Prevention of starch degradation (in words): 10 mg/l zinc or MCA alone; for Starch concentration 4 h: contact time 4 h; for Starch concentration 24 h: contact time 24 h
Description: as §1, with “(monochloramine, MCA)” for “(chlorine dioxide, ClO2)”, “MCA” for “ClO2”

[4] = system: starch degrading bacteria; assay: Prevention of starch degradation in head box stock using performic acid (PFA) and zinc; remaining starch by iodine staining; conditions: for Prevention of starch degradation (in words): 10 mg/l zinc or 20-120 mg/l PFA alone; for Starch concentration 4 h: contact time 4 h; for Starch concentration 24 h: contact time 24 h
Description: as §1, with “(performic acid, PFA)” for “(chlorine dioxide, ClO2)”, “PFA” for “ClO2”

[5] = PFA 11 mg/l (active ingredient)
[6] = PFA 16 mg/l (active ingredient)
[7] = Zn 10 mg/l (mg Zn2+ per l), 400 mg/l starch added

SMILES: [O][Cl+][O-] [ClO2, chlorine dioxide]
- Prevention of starch degradation (in words) ([1]; 4 h): prevented most of the starch degradation
- Prevention of starch degradation (in words) ([1]; 24 h): did not have marked effect
- Starch concentration 4 h ([1]; ClO2 5 mg/l): 128 mg/L
- Starch concentration 24 h ([1]; ClO2 5 mg/l): 5 mg/L
- Starch concentration 4 h ([1]; ClO2 9 mg/l): 153 mg/L
- Starch concentration 24 h ([1]; ClO2 9 mg/l): 12 mg/L
- Starch concentration 4 h ([1]; ClO2 14 mg/l): 197 mg/L
- Starch concentration 24 h ([1]; ClO2 14 mg/l): 13 mg/L
- Starch concentration 4 h ([1]; ClO2 20 mg/l): 227 mg/L
- Starch concentration 24 h ([1]; ClO2 20 mg/l): 19 mg/L

SMILES: O=CCCCC=O [GL, glutaraldehyde]
- Prevention of starch degradation (in words) ([2]; 4 h): prevented some of the starch degradation
- Prevention of starch degradation (in words) ([2]; 24 h): did not have marked effect
- Starch concentration 4 h ([2]; GL 5 mg/l (active substance)): 85 mg/L
- Starch concentration 24 h ([2]; GL 5 mg/l (active substance)): 3 mg/L
- Starch concentration 4 h ([2]; GL 10 mg/l (active substance)): 103 mg/L
- Starch concentration 24 h ([2]; GL 10 mg/l (active substance)): 5 mg/L
- Starch concentration 4 h ([2]; GL 20 mg/l (active substance)): 96 mg/L
- Starch concentration 24 h ([2]; GL 20 mg/l (active substance)): 4 mg/L
- Starch concentration 4 h ([2]; GL 30 mg/l (active substance)): 93 mg/L
- Starch concentration 24 h ([2]; GL 30 mg/l (active substance)): 6 mg/L

SMILES: NCl [MCA, monochloramine]
- Prevention of starch degradation (in words) ([3]; 4 h): prevented most of the starch degradation
- Prevention of starch degradation (in words) ([3]; 24 h): did not have any effect
- Starch concentration 4 h ([3]; MCA 10 mg/l (active chlorine)): 158 mg/L
- Starch concentration 24 h ([3]; MCA 10 mg/l (active chlorine)): 5 mg/L
- Starch concentration 4 h ([3]; MCA 20 mg/l (active chlorine)): 189 mg/L
- Starch concentration 24 h ([3]; MCA 20 mg/l (active chlorine)): 41 mg/L

SMILES: O=COO [PFA, performic acid]
- Prevention of starch degradation (in words) ([4]; 4 h): prevented most of the starch degradation
- Prevention of starch degradation (in words) ([4]; 24 h): did not have marked effect
- Starch concentration 4 h ([4]; PFA 3 mg/l (active ingredient)): 114 mg/L
- Starch concentration 24 h ([4]; PFA 3 mg/l (active ingredient)): 3 mg/L
- Starch concentration 4 h ([4]; PFA 5 mg/l (active ingredient)): 157 mg/L
- Starch concentration 24 h ([4]; PFA 5 mg/l (active ingredient)): 3 mg/L
- Starch concentration 4 h [4, 5]: 208 mg/L
- Starch concentration 24 h [4, 5]: 5 mg/L
- Starch concentration 4 h [4, 6]: 215 mg/L
- Starch concentration 24 h [4, 6]: 11 mg/L

SMILES: [Cl-].[Cl-].[Zn+2] [Zn, zinc chloride]
- Prevention of starch degradation (in words) ([2]; 4 h): prevented some of the starch degradation
- Prevention of starch degradation (in words) ([2]; 24 h): did not have marked effect
- Starch concentration 4 h ([2]; Zn 10 mg/l (mg Zn2+ per l)): 193 mg/L
- Starch concentration 24 h ([2]; Zn 10 mg/l (mg Zn2+ per l)): 21 mg/L
- Prevention of starch degradation (in words) ([4]; 4 h): prevented most of the starch degradation
- Prevention of starch degradation (in words) ([4]; 24 h): did not have marked effect
- Starch concentration 4 h ([4]; Zn 10 mg/l (mg Zn2+ per l)): 181 mg/L
- Starch concentration 24 h ([4]; Zn 10 mg/l (mg Zn2+ per l)): 38 mg/L
- Prevention of starch degradation (in words) ([3]; 4 h): prevented most of the starch degradation
- Prevention of starch degradation (in words) ([3]; 24 h): did not have any effect
- Starch concentration 4 h [3, 7]: 177 mg/L
- Starch concentration 24 h [3, 7]: 8 mg/L
- Prevention of starch degradation (in words) ([1]; 4 h): prevented most of the starch degradation
- Prevention of starch degradation (in words) ([1]; 24 h): did not have marked effect
- Starch concentration 4 h ([1]; Zn 10 mg/l (mg Zn2+ per l)): 219 mg/L
- Starch concentration 24 h ([1]; Zn 10 mg/l (mg Zn2+ per l)): 28 mg/L
